In the supplement of paper PMC4862054:
Values joined by “and” are separate entries in the source; they are usually repeats but may differ in a detail not shown here. Equal values may be shown once.

Tests used:
Conditions in all cases: incubation time: 72 h
HCC1143 = assay: drug sensitivity score (DSS), CellTiter-Blue viability (DSS (AUC-based score)); higher = stronger viability inhibition; extreme values may be limits of the assay
Experimental: (§1)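 DSRT with the CellTiter-Blue (resazurin reduction) viability readout, fluorescence 560/590 nm, 72 h incubation. Plates were normalised to DMSO and benzethonium chloride controls. DSS is computed from the area under the fitted dose-response curve (5 or 9 concentrations).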

SK-BR-3 = assay: as above
Experimental: as §1

BT-474 = assay: as above
Experimental: as §1

MFM-223 [1] = assay: as above
Experimental: as §1

CAL-85-1 = assay: as above
Experimental: as §1

HDQ-P1 = assay: as above
Experimental: as §1

HCC1599 = assay: as above
Experimental: as §1

MDA-MB-468 = assay: as above
Experimental: as §1

DU-4475 [2] = assay: as above
Experimental: as §1

MDA-MB-231 = assay: as above
Experimental: as §1

Hs578T [3] = assay: as above
Experimental: as §1

MDA-MB-453 [4] = assay: as above
Experimental: as §1

HCC1937 = assay: as above
Experimental: as §1

CAL-148 [5] = assay: as above
Experimental: as §1

MDA-MB-436 [6] = assay: as above
Experimental: as §1

CAL-120 [7] = assay: as above
Experimental: as §1

CAL-51 = assay: as above
Experimental: as §1

BT-549 = assay: as above
Experimental: as §1

MFM-223 [8] = assay: normalised viability (% of control), CellTiter-Blue; higher = more viable cells (about 100 = DMSO control)
In short: (§2)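 Each entry is normalised viability at a single listed concentration within a series. It comes from breast cancer cell lines incubated 72 h with compound in 384-well plates, then measured with CellTiter-Blue fluorescence at 560/590 nm. Every plate was normalised between vehicle (100) and a positive kill control (0).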

DU-4475 [9] = assay: as above
In short: as §2

Hs578T [10] = assay: as above
In short: as §2

MDA-MB-453 [11] = assay: as above
In short: as §2

CAL-148 [12] = assay: as above
In short: as §2

MDA-MB-436 [13] = assay: as above
In short: as §2

CAL-120 [14] = assay: as above
In short: as §2

C[C@H]1C[C@@H]2[C@H]([C@@H](O)C[C@@]3(C)[C@H]2CC[C@]3(O)C(=O)CO)[C@@]2(C)C=CC(=O)C=C12 [Methylprednisolone]
Conditions	drug sensitivity score
BT-474	0
BT-549	3.25
CAL-51	0
CAL-85-1	0
CAL-120 [7]	0
CAL-148 [5]	0
DU-4475 [2]	0
HCC1143	0
HCC1599	0
HCC1937	0
HDQ-P1	0
Hs578T [3]	0
MDA-MB-231	0
MDA-MB-436 [6]	0
MDA-MB-453 [4]	6.93
MDA-MB-468	0
MFM-223 [1]	0
SK-BR-3	0

normalised viability [%]
Conditions	CAL-120 [14]	CAL-148 [12]	DU-4475 [9]	Hs578T [10]	MDA-MB-436 [13]	MDA-MB-453 [11]	MFM-223 [8]
3 nM	–	88	84.7	–	–	112	–
10 nM	89.7	–	–	102	108	–	89.4
30 nM	–	99.4	83.5	–	–	85.6	–
100 nM	–	102	86.4	–	–	75.3	–
1000 nM	79.3	–	–	116	92.2	–	86.3
10000 nM	81.1	–	–	111	108	–	74.8

C1CN1c1nc(N2CC2)nc(N2CC2)n1 [Triethylenemelamine]
Conditions	drug sensitivity score
BT-474	0
BT-549	1.53
CAL-51	0
CAL-85-1	0
CAL-120 [7]	0
CAL-148 [5]	0.801
DU-4475 [2]	0
HCC1143	0
HCC1599	0
HCC1937	0
HDQ-P1	0
Hs578T [3]	0
MDA-MB-231	2.85
MDA-MB-436 [6]	0
MDA-MB-453 [4]	1.28
MDA-MB-468	0
MFM-223 [1]	0
SK-BR-3	0

normalised viability [%]
Conditions	CAL-120 [14]	CAL-148 [12]	DU-4475 [9]	Hs578T [10]	MDA-MB-436 [13]	MDA-MB-453 [11]	MFM-223 [8]
3 nM	–	101	102	–	–	115	–
10 nM	112	–	–	145	105	–	99.4
30 nM	–	105	102	–	–	102	–
100 nM	–	101	102	–	–	122	–
1000 nM	106	–	–	117	96.5	–	98.3
10000 nM	98.7	–	–	110	102	–	64.8

CCCCC(=O)OCC(=O)[C@]1(O)Cc2c(O)c3c(c(O)c2[C@@H](O[C@H]2C[C@H](NC(=O)C(F)(F)F)[C@H](O)[C@H](C)O2)C1)C(=O)c1c(OC)cccc1C3=O [Valrubicin]
Conditions	drug sensitivity score
BT-474	5.42
BT-549	7.75
CAL-51	20.6
CAL-85-1	7.92
CAL-120 [7]	15.3
CAL-148 [5]	21.1
DU-4475 [2]	25
HCC1143	11.4
HCC1599	6.82
HCC1937	16
HDQ-P1	9.44
Hs578T [3]	10.3
MDA-MB-231	10.8
MDA-MB-436 [6]	5.44
MDA-MB-453 [4]	11
MDA-MB-468	11.7
MFM-223 [1]	6.7
SK-BR-3	18.6

normalised viability [%]
Conditions	CAL-120 [14]	CAL-148 [12]	DU-4475 [9]	Hs578T [10]	MDA-MB-436 [13]	MDA-MB-453 [11]	MFM-223 [8]
3 nM	–	90.9	90.1	–	–	104	–
10 nM	96.1	–	–	98.8	111	–	92.1
30 nM	–	72.9	55.4	–	–	93.2	–
100 nM	–	60.1	49.8	–	–	99.3	–
1000 nM	31.8	–	–	55.5	84.9	–	72.6
10000 nM	15.6	–	–	22	42.8	–	24.2

CCc1cncnc1N1CCN(Cc2nc3ccc(C(F)(F)F)cc3[nH]2)CC1
Conditions	drug sensitivity score
BT-474	0
BT-549	0
CAL-51	0
CAL-85-1	0
CAL-120 [7]	0
CAL-148 [5]	0
DU-4475 [2]	0
HCC1143	0
HCC1599	0
HCC1937	0
HDQ-P1	0
Hs578T [3]	0
MDA-MB-231	0
MDA-MB-436 [6]	0
MDA-MB-453 [4]	0
MDA-MB-468	0
MFM-223 [1]	0
SK-BR-3	0

normalised viability [%]
Conditions	CAL-120 [14]	CAL-148 [12]	DU-4475 [9]	Hs578T [10]	MDA-MB-436 [13]	MDA-MB-453 [11]	MFM-223 [8]
3 nM	–	119	103	–	–	101	–
10 nM	104	–	–	95.4	107	–	103
30 nM	–	95.8	91.6	–	–	110	–
100 nM	–	114	107	–	–	103	–
1000 nM	135	–	–	122	106	–	122
10000 nM	132	–	–	88.8	91.7	–	82.7

Nc1ncn([C@H]2C[C@H](O)[C@@H](CO)O2)c(=O)n1 [Decitabine]
Conditions	drug sensitivity score
BT-549	4.59 and 2.2
CAL-85-1	0
CAL-120 [7]	0
DU-4475 [2]	4.16 and 2.07
HCC1143	5.09 and 8.28
HCC1937	3.95 and 4.59
HDQ-P1	0
Hs578T [3]	0
MDA-MB-468	21.5 and 21.6
MFM-223 [1]	0
SK-BR-3	2.77 and 1.44

Conditions	normalised viability
CAL-120 [14], 10 nM	88.1% and 89.4%
CAL-120 [14], 1000 nM	85.4% and 89%
CAL-120 [14], 10000 nM	58.3% and 62.3%
CAL-148 [12], 3 nM	92.8% and 76.2%
CAL-148 [12], 30 nM	91.4% and 85.8%
CAL-148 [12], 100 nM	86.2% and 96.3%
DU-4475 [9], 3 nM	110% and 98.7%
DU-4475 [9], 30 nM	81.5% and 97.7%
DU-4475 [9], 100 nM	86.9% and 96.8%
Hs578T [10], 10 nM	103% and 112%
Hs578T [10], 1000 nM	92.5% and 114%
Hs578T [10], 10000 nM	83.6% and 93.2%
MDA-MB-436 [13], 10 nM	85% and 75%
MDA-MB-436 [13], 1000 nM	69.6% and 68.2%
MDA-MB-436 [13], 10000 nM	70.5% and 71.4%
MDA-MB-453 [11], 3 nM	107% and 118%
MFM-223 [8], 10 nM	80.2% and 104%
MFM-223 [8], 1000 nM	84.7% and 102%
MFM-223 [8], 10000 nM	90.1% and 98.6%

CC[C@H](Nc1ncnc2[nH]cnc12)c1nc2cccc(F)c2c(=O)n1-c1ccccc1 [CAL-101]
Conditions	drug sensitivity score
BT-474	0
BT-549	1.74
CAL-51	0
CAL-85-1	0
CAL-120 [7]	1.02
CAL-148 [5]	0
DU-4475 [2]	2.91
HCC1143	1.48
HCC1599	3.9
HCC1937	0
HDQ-P1	2.23
Hs578T [3]	0
MDA-MB-231	0
MDA-MB-436 [6]	0
MDA-MB-453 [4]	2.74
MDA-MB-468	2.46
MFM-223 [1]	0
SK-BR-3	2.96

normalised viability [%]
Conditions	CAL-120 [14]	CAL-148 [12]	DU-4475 [9]	Hs578T [10]	MDA-MB-436 [13]	MDA-MB-453 [11]	MFM-223 [8]
3 nM	–	91.9	105	–	–	97.5	–
10 nM	95.6	–	–	116	111	–	90.3
30 nM	–	92.1	83.2	–	–	91.7	–
100 nM	–	88.5	86.2	–	–	89.8	–
1000 nM	89.6	–	–	112	107	–	89.9
10000 nM	77.8	–	–	86.8	95.7	–	79.9

C=CC(=O)N1CCC[C@@H](n2nc(-c3ccc(Oc4ccccc4)cc3)c3c(N)ncnc32)C1
Conditions	drug sensitivity score
BT-474	12.7
BT-549	0
CAL-51	0
CAL-85-1	5.07
CAL-120 [7]	0
CAL-148 [5]	0
DU-4475 [2]	0
HCC1143	0
HCC1599	0
HCC1937	0
HDQ-P1	1.18
Hs578T [3]	0
MDA-MB-231	0
MDA-MB-436 [6]	0
MDA-MB-453 [4]	14.8
MDA-MB-468	3.83
MFM-223 [1]	0
SK-BR-3	18.7

normalised viability [%]
Conditions	CAL-120 [14]	CAL-148 [12]	DU-4475 [9]	Hs578T [10]	MDA-MB-436 [13]	MDA-MB-453 [11]	MFM-223 [8]
0.3 nM	–	85.8	91.8	–	–	112	–
1 nM	86.4	–	–	123	106	–	92.1
3 nM	–	98.6	87.4	–	–	92.4	–
10 nM	–	96.3	86.8	–	–	77.3	–
100 nM	86.4	–	–	123	85.8	–	83
1000 nM	97	–	–	112	94.8	–	56.6

COc1cc2nccc(Oc3ccc(NC(=O)Nc4cc(C)on4)c(Cl)c3)c2cc1OC [Tivozanib]
Conditions	drug sensitivity score
BT-474	2.36
BT-549	2.11
CAL-51	2.51
CAL-85-1	0
CAL-120 [7]	2.1
CAL-148 [5]	0
DU-4475 [2]	0
HCC1143	0
HCC1599	0.494
HCC1937	0
HDQ-P1	5.92
Hs578T [3]	2.98
MDA-MB-231	3.77
MDA-MB-436 [6]	0
MDA-MB-453 [4]	5.3
MDA-MB-468	0
MFM-223 [1]	10.4
SK-BR-3	1.12

normalised viability [%]
Conditions	CAL-120 [14]	CAL-148 [12]	DU-4475 [9]	Hs578T [10]	MDA-MB-436 [13]	MDA-MB-453 [11]	MFM-223 [8]
3 nM	–	95	103	–	–	98	–
10 nM	101	–	–	109	101	–	93.6
30 nM	–	96.6	101	–	–	92.9	–
100 nM	–	91.8	119	–	–	96.3	–
1000 nM	98.7	–	–	84.8	97.1	–	55.3
10000 nM	47.8	–	–	58.2	72.4	–	40.2

Nc1nc(F)nc2c1ncn2[C@@H]1O[C@H](CO)[C@@H](O)[C@@H]1O [Fludarabine]
Conditions	drug sensitivity score
BT-474	0
BT-549	0.397
CAL-51	0
CAL-85-1	0
CAL-120 [7]	0
CAL-148 [5]	0
DU-4475 [2]	0
HCC1143	0
HCC1599	0
HCC1937	4.57
HDQ-P1	0
Hs578T [3]	0
MDA-MB-231	0
MDA-MB-436 [6]	0
MDA-MB-453 [4]	0
MDA-MB-468	0
MFM-223 [1]	0
SK-BR-3	1.12

normalised viability [%]
Conditions	CAL-120 [14]	CAL-148 [12]	DU-4475 [9]	Hs578T [10]	MDA-MB-436 [13]	MDA-MB-453 [11]	MFM-223 [8]
3 nM	–	71	91.1	–	–	113	–
10 nM	82.3	–	–	112	89	–	101
30 nM	–	82.6	93.2	–	–	112	–
100 nM	–	87.7	96.7	–	–	103	–
1000 nM	78.5	–	–	99.2	81.2	–	106
10000 nM	81.5	–	–	87.2	78.4	–	100
